Assay results reported in patent publication USRE38352E1, “Polymerase chain reaction assays for monitoring antiviral therapy and making therapeutic decisions in the treatment of acquired immunodeficiency syndrome” (priority 1992, dated 2003).
“And” between values parts separate entries of the source, which are not always exact repeats. Identical values can stand only once.

Tests used:
[1] = test system: plasma HIV RNA; assay: Plasma HIV RNA copy number by cDNA gene amplification (PCR) and enzyme-linked affinity assay; assay type: in vivo, human (HIV antibody-positive subjects); settings: individual patient
From the text: After informed consent was obtained, whole blood samples were collected by venipuncture in the presence of acid-citrate-dextrose as an anticoagulant. A single plasma sample was collected from 39 HIV antibody-positive subjects who were not receiving antiretroviral therapy at the time of collection and from 33 HIV antibody-positive subjects who were currently on and had received AZT for a minimum of 3 mo.
(§1) Two plasma samples were collected from an additional 27 subjects before and 1 month after initiation of dideoxynucleoside therapy. 18 of these subjects received 500 mg/d of AZT orally. Seven subjects received a combination of zidovudine (150-600 mg/d) and 2′,3′-dideoxyinosine (ddI) (134-500 mg/d). Two patients received 500 mg/d of ddI alone (see Table I for individual subject characteristics). Finally, nine of these subjects had two plasma samples taken 1-3 wk. before initiating antiretroviral therapy and two plasma samples taken 1 and 2 mo. after commencing therapy. Plasma was separated within 4 h. by centrifugation at 500 g for 10 min. A second centrifugation was performed on the plasma at 500 g for 30 min. to remove any cellular material. 200 μl of plasma was then mixed with 200 μl of a solution containing 5M guanidinium thiocyanate, vortexed briefly, and stored at −70° C. until further use. All samples were assayed within 3 mo. of collection. To decrease variance, all specimens to be compared from the same subject were run in the same assay.
RNA was extracted from plasma by the method described in Chomczynski et al., 1987, Ann. Biochem. 162:156-159. Briefly, 200 μl of clarified plasma to which 200 μl of 5M guanidinium thiocyanate had previously been added was extracted with phenol/chloroform and precipitated with isopropanol. The resulting pellet was then washed in 75% ethanol, dried, and brought up in diethylpyrocarbonate treated, glass distilled water.
HIV RNA was transcribed to cDNA using Moloney murine leukemia virus reverse transcriptase (Bethesda Research Laboratories, Gaithersburg, Md.) by the method described in Kawasaki, 1990, “In PCR Protocols: A Guide to Methods and Applications” pp. 21-27, M. A. Innis, D. H. Gelfand, J. J. Sninsky, and T. J. White, eds. Academic Press, Berkeley, Calif. Oligomers used for amplification included SK38, SK39, and SK19 (Kellog et al., 1990, “In PCR Protocols: A Guide to Methods and Applications,” pp. 337-348, M. A. Innis, D. H. Gelfand, J. J. Sninsky, and T. J. White, eds. Academic Press, Berkeley, Calif.). Biotinylation of SK38 and horseradish peroxidase (HRP) labeling of probe SK19 were prepared as described in Levenson et al., 1990, “In PCR Protocols: A Guide to Methods and Applications,” pp. 99-112M. S. Innis, D. H. Gelfand, J. J. Sninsky, and T. J. White, eds. Academic Press, Berkeley, Calif. Amplification of HIV cDNA was carried out as follows: to a 100-μl reaction mixture was added the cDNA, 50 pmol of primers SK38 and SDK39, […] of each dNTP, 10 mM Tris (pH 8.3), 2.5 mM MgCl2, 50 mM KCl, and 2.5 U of recombiTaq DNA polymerase (Perkin-Elmer Cetus, Norwalk, Conn.). The mixture was then overlaid with 50 μl of mineral oil. Tubes were placed in a DNA thermal cycler (Perkin-Elmer Cetus) for 30 cycles of amplification with the following program: 95° C./30 s, 55° C./30s, and 72° C./60 s for denaturation, annealing, and extension, respectively. Negative and positive controls which included both high and low copy number HIV RNA and DNA were added at each step.
To detect and quantitate PCR product, 96-well microplates (Maxisorp; Nunc, Naperville, Ill.) were coated with 100 μl of a 0.1 mg/ml solution of avidin (Sigma Chemical Co., St. Louis, Mo.) in 50 mM Na2CO3 (pH 9.6) overnight at room temperature. Wells were then washed twice with PBS. Wells were then filled with 300 μl of a blocking solution containing 5X Denhardt's solution, 1% gelatin (Sigma), […] sheared herring sperm DNA (Promega Biotec, Madison, Wis.) at least overnight at 4° C. […]

[2] = test system: CD4 cells; parameters: species or system human (HIV antibody-positive subjects); settings: human, in vivo
Description: as §1
Sample optical density was converted to copy number and analyses performed on samples expressed as RNA copy number/200 μl of plasma. […] A t test of paired samples was used to analyze paired plasma data and CD4 counts from subjects pre- and post-therapy. All t tests were two tailed. […]

[3] = test system: serum HIV RNA; assay: Serum virus burden by quantitative PCR in patients receiving didanosine monotherapy; assay type: in vivo, human (patients infected with HIV)
From the text: Duplicate serum samples were ultracentrifuged, and the pellet was purified by phenol-chloroform extraction and alcohol precipitation, as previously described for plasma (Winters et al., 1993, J. Clin. Microbiol. 31:2960-2966). Polymerase chain reaction quantification of viral RNA was done using reverse-transcriptase PCR, and the PCR product was detected using a nonisotopic enzyme-hybridization assay, as previously described (Winters et al., 1992, PCR Methods Appl. 1:257-262). Results were then expressed as HIV RNA copies per milliliter of serum.
(§2) A two-sided t-test was used to compare changes in virus burden between patient groups. A standard one-sample, two-sided Wilcoxon test was used to compare differences in the change of slopes of CD4^+ T cells (slopes of CD4^+ cells before the mutation compared with slopes of CD4^+ cells after the mutation) for patients developing a mutation at codon 74. The slope difference test analysis pertained to the slope difference statistic, defined to be the difference in fitted slope of the CD4^+ counts after compared with before the mutation at codon 74. Thirty-four of 38 patients in the mutation group had sufficient data to allow computation of the slope difference statistic.

[4] = test system: CD4+ T cells; assay: CD4+ T-cell slope changes before/after codon 74 mutation on didanosine; assay type: in vivo, human (patients infected with HIV); settings: 34 of 38 patients who developed the mutation; CI −2.68 to −0.71
From the text: as §2
We compared the slope difference statistic values for the 34 mutants with the corresponding values from the wild-type group in order to see if they were more negative in the mutant group. […]

[5] = test system: HIV with codon 74 mutation in reverse transcriptase; settings: codon 74 mutation in an HIV construct (St. Clair et al.); cited from earlier work

OC[C@@H]1CC[C@H](n2cnc3c(O)ncnc32)O1 [ddI, 2′,3′-dideoxyinosine]
Post HIV RNA ([1]; 1 mo after initiation, ddI 500 mg/d): 0 copy number/200 μl of plasma
Pre HIV RNA ([1]; before initiation of therapy): 966 copy number/200 μl of plasma and 3944 copy number/200 μl of plasma
Post CD4 [2]: 328/310 and 222/370
Pre CD4 [2]: 328/310 and 222/370
Fold Difference in virus burden, mutant vs wild type ([3]; Week 0, listed as DIDANOSINE): 1.66 fold
Fold Difference in virus burden, mutant vs wild type ([3]; Week 0, listed as didanosine): 1.6 fold
Fold Difference in virus burden, mutant vs wild type ([3]; Week 24, listed as DIDANOSINE): 2.71 fold
Fold Difference in virus burden, mutant vs wild type ([3]; Week 24, listed as didanosine): 2.7 fold
Week 0, mean HIV RNA copies/mL serum ([3]; patients whose codon 74 genotypes became mutant, initiation of didanosine): 83 000 copies/mL serum
Week 0, mean HIV RNA copies/mL serum ([3]; patients whose codon 74 genotypes remained wild type, initiation of didanosine, listed as DIDANOSINE): 50100 copies/mL serum
Week 0, mean HIV RNA copies/mL serum ([3]; patients whose codon 74 genotypes remained wild type, initiation of didanosine, listed as didanosine): 50 100 copies/mL serum
Fold increase in virus burden between week 0 to 24 ([3]; remained wild type at codon 74): 1.65 fold
Week 24, mean HIV RNA copies/mL serum ([3]; remained wild type at codon 74): 82400 copies/mL serum
mean serum virus burden ([3]; subgroup codon 74 mutation with codon 215 mutation, after 24 weeks of didanosine): about 275 400 HIV RNA copies/mL serum
Week 0, mean HIV RNA copies/mL serum ([3]; {}): 83000 copies/mL serum
Week 24, mean HIV RNA copies/mL serum ([3]; {}): 225000 copies/mL serum
median greater decline of CD4+ T-cell slope after vs before codon 74 mutation [4]: −1.54 CD4^+ cells/wk
decrease in susceptibility to didanosine [5]: eightfold
